Laboratory results as given in patent US9963445B2, “Chemical compounds” (SYNGENTA PARTICIPATIONS AG, priority 2013, dated 2018).

Tested on: Echinochloa crus-galli
Test: Post-emergence herbicidal activity, glasshouse pot test
Assay type: in vivo
Parameters: key: 0 = no damage to plant, 5 = total damage to plant
Details: Application post-emergence, rate 1000 g/ha, evaluated after 13 days
Outline: (§1)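 After 8 days of glasshouse growth at 24/16 °C day/night, potted plants receive a foliar spray of the formulated compound (0.5% Tween 20 in acetone/water). They are then watered twice daily under unchanged conditions, and phytotoxicity is scored 0–5 after 13 days.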

In order of falling “ECHCG herbicidal damage score” value:
1. CC1=C(Cl)C(=O)N(c2cc(OC(C)C)ncn2)C1O (stereo not drawn) [CF5]  5
2. CCC1=C(Cl)C(=O)N(c2cc(C(C)(C)C#N)ncn2)C1O (stereo not drawn) [CF10]  5
3. CCOC(=O)C(C)(C)c1cc(N2C(=O)C(Cl)=C(C)C2O)ncn1 (stereo not drawn) [CF11]  5
4. C/C=C/c1cc(N2C(=O)C(Cl)=C(C)C2O)ncn1 (stereo not drawn) [CF6]  4

Tested on: Alopecurus myosuroides
Test: as above
Assay type: in vivo
Parameters: key: 0 = no damage to plant, 5 = total damage to plant
Details: Application post-emergence, rate 1000 g/ha, evaluated after 13 days
Outline: as §1

In order of falling “ALOMY herbicidal damage score” value:
1. CCC1=C(Cl)C(=O)N(c2cc(C(C)(C)C#N)ncn2)C1O (stereo not drawn) [CF10]  5
2. CCOC(=O)C(C)(C)c1cc(N2C(=O)C(Cl)=C(C)C2O)ncn1 (stereo not drawn) [CF11]  5
3. CC1=C(Cl)C(=O)N(c2cc(OC(C)C)ncn2)C1O (stereo not drawn) [CF5]  4
4. C/C=C/c1cc(N2C(=O)C(Cl)=C(C)C2O)ncn1 (stereo not drawn) [CF6]  3

Tested on: zea mays
Test: as above
Assay type: in vivo
Parameters: key: 0 = no damage to plant, 5 = total damage to plant
Details: Application post-emergence, rate 1000 g/ha, evaluated after 13 days
Outline: as §1

In order of falling “ZEAMX herbicidal damage score” value:
1. CCC1=C(Cl)C(=O)N(c2cc(C(C)(C)C#N)ncn2)C1O (stereo not drawn) [CF10]  5
2. CCOC(=O)C(C)(C)c1cc(N2C(=O)C(Cl)=C(C)C2O)ncn1 (stereo not drawn) [CF11]  3
3. CC1=C(Cl)C(=O)N(c2cc(OC(C)C)ncn2)C1O (stereo not drawn) [CF5]  2
4. C/C=C/c1cc(N2C(=O)C(Cl)=C(C)C2O)ncn1 (stereo not drawn) [CF6]  0

Tested on: Setaria faberi
Test: as above
Assay type: in vivo
Parameters: key: 0 = no damage to plant, 5 = total damage to plant
Details: Application post-emergence, rate 1000 g/ha, evaluated after 13 days
Outline: as §1

In order of rising “SETFA herbicidal damage score” value:
1. C/C=C/c1cc(N2C(=O)C(Cl)=C(C)C2O)ncn1 (stereo not drawn) [CF6]  4
2. CC1=C(Cl)C(=O)N(c2cc(OC(C)C)ncn2)C1O (stereo not drawn) [CF5]  5
3. CCC1=C(Cl)C(=O)N(c2cc(C(C)(C)C#N)ncn2)C1O (stereo not drawn) [CF10]  5
4. CCOC(=O)C(C)(C)c1cc(N2C(=O)C(Cl)=C(C)C2O)ncn1 (stereo not drawn) [CF11]  5

Tested on: Abutilon theophrasti
Test: as above
Assay type: in vivo
Parameters: key: 0 = no damage to plant, 5 = total damage to plant
Details: Application post-emergence, rate 1000 g/ha, evaluated after 13 days
Outline: as §1

In order of falling “ABUTH herbicidal damage score” value:
1. CC1=C(Cl)C(=O)N(c2cc(OC(C)C)ncn2)C1O (stereo not drawn) [CF5]  5
2. CCC1=C(Cl)C(=O)N(c2cc(C(C)(C)C#N)ncn2)C1O (stereo not drawn) [CF10]  5
3. CCOC(=O)C(C)(C)c1cc(N2C(=O)C(Cl)=C(C)C2O)ncn1 (stereo not drawn) [CF11]  5
4. C/C=C/c1cc(N2C(=O)C(Cl)=C(C)C2O)ncn1 (stereo not drawn) [CF6]  4

Tested on: Amaranthus retroflexus
Test: as above
Assay type: in vivo
Parameters: key: 0 = no damage to plant, 5 = total damage to plant
Details: Application post-emergence, rate 1000 g/ha, evaluated after 13 days
Outline: as §1

In order of rising “AMARE herbicidal damage score” value:
1. C/C=C/c1cc(N2C(=O)C(Cl)=C(C)C2O)ncn1 (stereo not drawn) [CF6]  2
2. CCOC(=O)C(C)(C)c1cc(N2C(=O)C(Cl)=C(C)C2O)ncn1 (stereo not drawn) [CF11]  2
3. CC1=C(Cl)C(=O)N(c2cc(OC(C)C)ncn2)C1O (stereo not drawn) [CF5]  4
4. CCC1=C(Cl)C(=O)N(c2cc(C(C)(C)C#N)ncn2)C1O (stereo not drawn) [CF10]  5

Tested on: Echinochloa crus-galli
Test: Pre-emergence herbicidal activity, glasshouse pot test
Assay type: in vivo
Details: pre-emergence spray, rate 1000 g/ha, evaluated after 13 days, scale 0-5
Outline: (§2)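 Damage score 0–5 (5 = total damage) read 13 d after spraying. Pots sown, sprayed pre-emergence at day 1 with aqueous spray from acetone/water 50:50 + 0.5% Tween 20 formulation; glasshouse 24/16 °C, 14 h light, 65% RH.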

In order of falling “ECHCG damage score, application pre-emergence” value:
1. CCOC(=O)C(C)(C)c1cc(N2C(=O)C(Cl)=C(C)C2O)ncn1 (stereo not drawn) [CF11]  5
2. CCC1=C(Cl)C(=O)N(c2cc(C(C)(C)C#N)ncn2)C1O (stereo not drawn) [CF10]  4
3. CC1=C(Cl)C(=O)N(c2cc(OC(C)C)ncn2)C1O (stereo not drawn) [CF5]  3
4. C/C=C/c1cc(N2C(=O)C(Cl)=C(C)C2O)ncn1 (stereo not drawn) [CF6]  3

Tested on: Alopecurus myosuroides
Test: as above
Assay type: in vivo
Details: pre-emergence spray, rate 1000 g/ha, evaluated after 13 days, scale 0-5
Outline: as §2

In order of falling “ALOMY damage score, application pre-emergence” value:
1. CC1=C(Cl)C(=O)N(c2cc(OC(C)C)ncn2)C1O (stereo not drawn) [CF5]  3
2. C/C=C/c1cc(N2C(=O)C(Cl)=C(C)C2O)ncn1 (stereo not drawn) [CF6]  2
3. CCC1=C(Cl)C(=O)N(c2cc(C(C)(C)C#N)ncn2)C1O (stereo not drawn) [CF10]  2
4. CCOC(=O)C(C)(C)c1cc(N2C(=O)C(Cl)=C(C)C2O)ncn1 (stereo not drawn) [CF11]  2

Tested on: zea mays
Test: as above
Assay type: in vivo
Details: pre-emergence spray, rate 1000 g/ha, evaluated after 13 days, scale 0-5
Outline: as §2

In order of falling “ZEAMX damage score, application pre-emergence” value:
1. CCC1=C(Cl)C(=O)N(c2cc(C(C)(C)C#N)ncn2)C1O (stereo not drawn) [CF10]  4
2. CC1=C(Cl)C(=O)N(c2cc(OC(C)C)ncn2)C1O (stereo not drawn) [CF5]  2
3. CCOC(=O)C(C)(C)c1cc(N2C(=O)C(Cl)=C(C)C2O)ncn1 (stereo not drawn) [CF11]  2
4. C/C=C/c1cc(N2C(=O)C(Cl)=C(C)C2O)ncn1 (stereo not drawn) [CF6]  0

Tested on: Setaria faberi
Test: as above
Assay type: in vivo
Details: pre-emergence spray, rate 1000 g/ha, evaluated after 13 days, scale 0-5
Outline: as §2

In order of falling “SETFA damage score, application pre-emergence” value:
1. CC1=C(Cl)C(=O)N(c2cc(OC(C)C)ncn2)C1O (stereo not drawn) [CF5]  5
2. CCC1=C(Cl)C(=O)N(c2cc(C(C)(C)C#N)ncn2)C1O (stereo not drawn) [CF10]  4
3. CCOC(=O)C(C)(C)c1cc(N2C(=O)C(Cl)=C(C)C2O)ncn1 (stereo not drawn) [CF11]  4
4. C/C=C/c1cc(N2C(=O)C(Cl)=C(C)C2O)ncn1 (stereo not drawn) [CF6]  2

Tested on: Abutilon theophrasti
Test: as above
Assay type: in vivo
Details: pre-emergence spray, rate 1000 g/ha, evaluated after 13 days, scale 0-5
Outline: as §2

In order of falling “ABUTH damage score, application pre-emergence” value:
1. CCC1=C(Cl)C(=O)N(c2cc(C(C)(C)C#N)ncn2)C1O (stereo not drawn) [CF10]  5
2. CCOC(=O)C(C)(C)c1cc(N2C(=O)C(Cl)=C(C)C2O)ncn1 (stereo not drawn) [CF11]  5
3. CC1=C(Cl)C(=O)N(c2cc(OC(C)C)ncn2)C1O (stereo not drawn) [CF5]  4
4. C/C=C/c1cc(N2C(=O)C(Cl)=C(C)C2O)ncn1 (stereo not drawn) [CF6]  0

Tested on: Amaranthus retroflexus
Test: as above
Assay type: in vivo
Details: pre-emergence spray, rate 1000 g/ha, evaluated after 13 days, scale 0-5
Outline: as §2

In order of falling “AMARE damage score, application pre-emergence” value:
1. CCC1=C(Cl)C(=O)N(c2cc(C(C)(C)C#N)ncn2)C1O (stereo not drawn) [CF10]  5
2. CC1=C(Cl)C(=O)N(c2cc(OC(C)C)ncn2)C1O (stereo not drawn) [CF5]  4
3. CCOC(=O)C(C)(C)c1cc(N2C(=O)C(Cl)=C(C)C2O)ncn1 (stereo not drawn) [CF11]  4
4. C/C=C/c1cc(N2C(=O)C(Cl)=C(C)C2O)ncn1 (stereo not drawn) [CF6]  2
